# Assay results: patent US20190136188A1, “4HPR AND ITS USE IN THE CULTURING OF HEMATOPOIETIC STEM CELLS” (UNIVERSITY HEALTH NETWORK, priority 2016, published 2019)
# Tested on: CD34+CD38- (stem) and CD34+CD38+ (prog) cells
# Assay: cyto-ID flow cytometry (autophagic flux)
# Format: cell-based, human
# Settings: day 2
# Experimental: (A) Representative mmunofluorescence images taken by confocal microscopy for DAPI (blue) and LC3II staining (green) for CD34+CD38− cells (stem) following 2 days of treatment with DMSO control or 2 uM 4HPR with and without the autophagy inhibitor baflomycin A1 (BAF) to assay for basal autophagy and autophagic flux. (B) Quantitation of LC3II foci area as a percentage of total cell area for stem and prog (CD34+38+) cells from three independent CB using R and Image J software. (C) LCII foci area is increased with 4HPR treatment relative to control in the presence of BAF only in stem populations and not Prog populations. (D) Representative flow cytometry histogram plot of cyto-ID fluorescence intensity of control (black) and 4HPR (green) treated stem cells to assay for autophagic flux. Lower mean fluorescence intensity (MFI) indicates more turnover of autophagosomes and thus increased autophagic flux. […] (F) Cytokine withdrawal for 3 hours activates autophagic flux in CB stem cells to similar levels as 2 uM 4HPR as assayed by cyto-ID flow cytometry at day 2 post-treatment (n=3).
# (B). […] This difference in mitochondrial content is lost by day 3 post culture (See FIG. 3K).
# We hypothesize that such selective enhancement of CFC cloning efficiency with 4HPR treatment is a result of activating autophagy in HSC in human CB. […]
structure (smiles),measurement,setting,value
"CC1=C(/C=C/C(C)=C/C=C/C(C)=C/C(=O)Nc2ccc(O)cc2)C(C)(C)CCC1 [4HPR, N-(4hydroxyphenyl)retinamide]",autophagic flux by cyto-ID,"0.2 uM or 2 uM 4HPR vs vehicle, stem vs prog",only significantly induced in stem but not prog cells
same,autophagy activated by cytokine withdrawal (cytoID),"CB stem cells, 3 hour cytokine withdrawal",further enhanced in the presence of 4HPR
